Measured values published in the supplement of paper PMC4862054.

Columns and labels:
Details in all cases: incubation time: 72 h
Hs578T [1] = assay: normalised response (% of control), CellTiter-Glo; higher = more viable cells (100 = DMSO, 0 = benzethonium chloride kill control)
Summary of the method: (§1)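 CellTox Green fluorescence (485/520 nm) and, after 10 min at room temperature, CellTiter-Glo luminescence were read from breast cancer cell lines incubated 72 h in 384-well plates. Cells were seeded as 20 µl suspension onto compound at 5 concentrations in 10-fold steps over a 10,000-fold range chosen per compound. Each plate was normalised to 0.1 % DMSO (100) and a positive kill control (0). Values are normalised signals, one per concentration.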

MDA-MB-468 [2] = assay: as above
Summary of the method: as §1

CAL-120 [3] = assay: as above
Summary of the method: as §1

HCC1599 [4] = assay: as above
Summary of the method: as §1

HDQ-P1 [5] = assay: as above
Summary of the method: as §1

MDA-MB-453 [6] = assay: as above
Summary of the method: as §1

SK-BR-3 [7] = assay: as above
Summary of the method: as §1

BT-474 [8] = assay: as above
Summary of the method: as §1

MDA-MB-436 [9] = assay: as above
Summary of the method: as §1

CAL-85-1 [10] = assay: as above
Summary of the method: as §1

MFM-223 [11] = assay: as above
Summary of the method: as §1

CAL-148 [12] = assay: as above
Summary of the method: as §1

HCC1143 [13] = assay: as above
Summary of the method: as §1

CAL-51 [14] = assay: as above
Summary of the method: as §1

MDA-MB-231 [15] = assay: as above
Summary of the method: as §1

DU-4475 [16] = assay: as above
Summary of the method: as §1

MCF-10A = assay: as above
Summary of the method: as §1

BT-549 [17] = assay: as above
Summary of the method: as §1

HCC1937 [18] = assay: as above
Summary of the method: as §1

Hs578T [19] = assay: normalised viability (% of control), CellTiter-Blue; higher = more viable cells (100 = DMSO, 0 = benzethonium chloride kill control)
Method: (§2)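 DSRT, CellTiter-Blue viability, 72 h incubation. Signal is normalised to DMSO and benzethonium chloride controls. Value is the normalised response at dose 1.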

MDA-MB-468 [20] = assay: as above
Method: as §2

CAL-120 [21] = assay: as above
Method: as §2

HCC1599 [22] = assay: as above
Method: as §2

HDQ-P1 [23] = assay: as above
Method: as §2

MDA-MB-453 [24] = assay: as above
Method: as §2

SK-BR-3 [25] = assay: as above
Method: as §2

BT-474 [26] = assay: as above
Method: as §2

MDA-MB-436 [27] = assay: as above
Method: as §2

CAL-85-1 [28] = assay: as above
Method: as §2

MFM-223 [29] = assay: as above
Method: as §2

CAL-148 [30] = assay: as above
Method: as §2

HCC1143 [31] = assay: as above
Method: as §2

CAL-51 [32] = assay: as above
Method: as §2

MDA-MB-231 [33] = assay: as above
Method: as §2

DU-4475 [34] = assay: as above
Method: as §2

BT-549 [35] = assay: as above
Method: as §2

HCC1937 [36] = assay: as above
Method: as §2

| Compound | normalised response (Hs578T [1]) | normalised response (MDA-MB-468 [2]) | normalised response (CAL-120 [3]) | normalised response (HCC1599 [4]) | normalised response (HDQ-P1 [5]) | normalised response (MDA-MB-453 [6]) | normalised response (SK-BR-3 [7]) | normalised response (BT-474 [8]) | normalised response (MDA-MB-436 [9]) | normalised response (CAL-85-1 [10]) | normalised response (MFM-223 [11]) | normalised response (CAL-148 [12]) | normalised response (HCC1143 [13]) | normalised response (CAL-51 [14]) | normalised response (MDA-MB-231 [15]) | normalised response (DU-4475 [16]) | normalised response (MCF-10A) | normalised response (BT-549 [17]) | normalised response (HCC1937 [18]) | normalised viability (Hs578T [19]) | normalised viability (MDA-MB-468 [20]) | normalised viability (CAL-120 [21]) | normalised viability (HCC1599 [22]) | normalised viability (HDQ-P1 [23]) | normalised viability (MDA-MB-453 [24]) | normalised viability (SK-BR-3 [25]) | normalised viability (BT-474 [26]) | normalised viability (MDA-MB-436 [27]) | normalised viability (CAL-85-1 [28]) | normalised viability (MFM-223 [29]) | normalised viability (CAL-148 [30]) | normalised viability (HCC1143 [31]) | normalised viability (CAL-51 [32]) | normalised viability (MDA-MB-231 [33]) | normalised viability (DU-4475 [34]) | normalised viability (BT-549 [35]) | normalised viability (HCC1937 [36]) |
| --- | --- | --- | --- | --- | --- | --- | --- | --- | --- | --- | --- | --- | --- | --- | --- | --- | --- | --- | --- | --- | --- | --- | --- | --- | --- | --- | --- | --- | --- | --- | --- | --- | --- | --- | --- | --- | --- |
| CCNC(=O)CCC/C=C\C[C@@H]1[C@@H](/C=C/[C@@H](O)CCc2ccccc2)[C@H](O)C[C@@H]1O [Bimatoprost] (0.55 nM) | 93.3% | 99.3% | 95.8% | 88.5% | 92.7% | 108% | 85.8% | 95.8% | 98.5% | 96.6% | 94.3% | 98.3% | 92.6% | 90.8% | 101% | 102% | 91.1% | 103% | 99.9% | 113% | 109% | 91.6% | 115% | 119% | 102% | 117% | 110% | 111% | 94.7% | 94.9% | 96.5% | 99% | 120% | 120% | 111% | 103% | 103% |
| COc1cc(Nc2c(C#N)cnc3cc(OCCCN4CCN(C)CC4)c(OC)cc23)c(Cl)cc1Cl [Bosutinib] (1 nM) | 95.6% | 101% | 92.6% | 112% | 99.6% | 101% | 104% | 98.8% | 96.6% | 96.4% | 99.3% | 104% | 93% | 99.9% | 93.1% | 101% | 99.9% | 98.4% | 97.3% | 110% | 112% | 84.3% | 103% | 108% | 113% | 106% | 116% | 113% | 88.8% | 93.1% | 94.8% | 94% | 112% | 100% | 105% | 111% | 80.1% |
| Cn1cc(C2=C(c3cn(C4CCN(Cc5ccccn5)CC4)c4ccccc34)C(=O)NC2=O)c2ccccc21 [Enzastaurin] (1 nM) | 105% | 104% | 98.3% | 102% | 96.8% | 109% | 109% | 96.4% | 94.2% | 105% | 103% | 104% | 96.6% | 61.3% | 98.5% | 101% | 106% | 102% | 96.9% | 98.2% | 99% | 86.2% | 104% | 107% | 96.4% | 92.5% | 105% | 130% | 86.3% | 82.1% | 98.9% | 92.5% | 114% | 87.5% | 108% | 113% | 97.2% |
| CC(C)(C)NC(=O)[C@H]1CC[C@H]2[C@@H]3CC[C@H]4NC(=O)C=C[C@]4(C)[C@H]3CC[C@]12C [Finasteride] (1 nM) | 104% | 104% | 99.5% | 98.8% | 102% | 112% | 103% | 101% | 99.5% | 96% | 102% | 103% | 99% | 94.5% | 107% | 102% | 111% | 103% | 96.1% | 108% | 105% | 104% | 91.6% | 133% | 109% | 74.8% | 72.8% | 98.7% | 97% | 96.4% | 110% | 107% | 108% | 108% | 96.7% | 93.1% | 100% |
| Nc1ccn([C@@H]2O[C@H](CO)[C@@H](O)C2(F)F)c(=O)n1 [Gemcitabine] (0.1 nM) | 106% | 95.8% | 93.6% | 97.4% | 95.1% | 107% | 93.4% | 97% | 102% | 94.2% | 94.5% | 96% | 92.6% | 101% | 94.5% | 99.9% | 99.7% | 98.4% | 95.8% | 114% | 100% | 96.5% | 89.4% | 111% | 109% | 102% | 87% | 108% | 96.8% | 101% | 103% | 101% | 105% | 94.6% | 93.5% | 108% | 76.1% |
| CC(C)C[C@H](NC(=O)[C@@H](COC(C)(C)C)NC(=O)[C@H](Cc1ccc(O)cc1)NC(=O)[C@H](CO)NC(=O)[C@H](Cc1c[nH]c2ccccc12)NC(=O)[C@H](Cc1cnc[nH]1)NC(=O)[C@@H]1CCC(=O)N1)C(=O)N[C@@H](CCCNC(=N)N)C(=O)N1CCC[C@H]1C(=O)NNC(N)=O [Goserelin] (1 nM) | 96.1% | 101% | 99.6% | 96% | 97.3% | 108% | 96.8% | 99.2% | 102% | 96.4% | 96.7% | 84.5% | 96.7% | 122% | 103% | 95.1% | 94.8% | 105% | 92.7% | 106% | 91.7% | 104% | 114% | 111% | 102% | 93.3% | 82.1% | 102% | 87.7% | 96% | 109% | 94.3% | 110% | 103% | 99.3% | 93.1% | 86.5% |
